From US20050209278A1, “Piperidinyl- and piperazinyl-sulfonylmethyl hydroxamic acids and their use as protease inhibitors” (priority 2002, published 2005)
pKi: −log10 of the molar value. “And” between values parts separate entries of the source, which are not always exact repeats. Equal values may be shown once.

These compounds were tested against T1, MMP-13 (Homo sapiens, UniProt P45452) (assay: In vitro MMP inhibition, Ki determination (fluorogenic substrate II)). Settings: value outside parentheses; read-out: MMP-13 Ki.
T1 construct: made in house; host or cells: baculovirus / insect cells
Assay type: biochemical
Procedure, shortened: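 Room-temperature, 1 h incubation of APMA-activated recombinant human MMP-13 with 4 μM quenched substrate II (cleaved at Gly-Leu) in pH 7.5 Tris/NaCl/CaCl2 buffer. Inhibition appears as a slowed rise in 330/420 nm fluorescence. Single low enzyme and substrate levels were used for Ki.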

SMILES | pKi
O=C(NO)C1(S(=O)(=O)N2CCN(c3ccc(OCCCC(F)(F)F)cc3)CC2)CC(O)C1 (centres unmarked) [Example 342] | 8.41
O=C(NO)C1(S(=O)(=O)N2CCC(c3ccc(OCC(F)(F)F)cc3)CC2)CCOCC1 [Example 357] | 8.92
CCCCCc1cccc(N2CCN(S(=O)(=O)C3(C(=O)NO)CCOCC3)CC2)c1 [Example 356] | 7.45
O=C(NO)C1(S(=O)(=O)N2CCC(c3ccc(CCCC(F)(F)F)cc3)CC2)CCOCC1 [Example 353] | 9.42
O=C(NO)C1(S(=O)(=O)N2CCC(N3CCN(c4ccc(Cl)cc4)CC3)CC2)CCOCC1 [Example 315] | 6.38
O=C(NO)C1(S(=O)(=O)N2CCN(c3ccc(OCC4CC4)c(F)c3)CC2)CCOCC1 [Example 333] | 8.95
Cc1ccccc1-c1cnc(N2CCN(S(=O)(=O)C3(C(=O)NO)CCOCC3)CC2)s1 [Example 348] | 8.52
O=C(NO)C1(S(=O)(=O)N2CCN(c3ncc(-c4ccc(C(F)(F)F)cc4)s3)CC2)CCOCC1 [Example 346] | 9.78
O=C(NO)C1(S(=O)(=O)N2CCN(c3cccc(OCCCC(F)(F)F)c3)CC2)CCOCC1 [Example 355] | 7.29
CCCCc1ccc(C2CCN(S(=O)(=O)C3(C(=O)NO)CCOCC3)CC2)nc1 [Example 323] | 9.19
O=C(NO)C1(S(=O)(=O)N2CCN(c3ncc(-c4ccc(F)cc4)s3)CC2)CCOCC1 [Example 345] | 9.63
O=C(NO)C1(S(=O)(=O)N2CCC(COCC(F)(F)C(F)(F)C(F)(F)F)CC2)CCOCC1 [Example 377] | 7.06
O=C(O)c1ccc(N2CCN(S(=O)(=O)C3(C(=O)NO)CCOCC3)CC2)cc1 [Example 352] | 5.44
O=C(NO)C1(S(=O)(=O)N2CCN(c3ccc(-c4ccccc4F)cn3)CC2)CCOCC1 [Example 317] | 9.15
O=C(NO)C1(S(=O)(=O)N2CCC(c3ccc(CCCC(F)(F)F)cc3)CC2)CCN(C2CC2)CC1 [Example 351] | 9.44
O=C(NO)C1(S(=O)(=O)N2CCC(c3ccc(OC(F)(F)C(F)(F)F)cc3)CC2)CCOCC1 [Example 349] | 8.29
CCCCc1cnc(N2CCN(S(=O)(=O)C3(C(=O)NO)CCN(CCOC)CC3)CC2)nc1 [Example 334] | 8.56
O=C(NO)C1(S(=O)(=O)N2CCC(COCC(F)(F)C(F)(F)C(F)(F)C(F)F)CC2)CCOCC1 [Example 378] | 7.32
O=C(NO)C1(S(=O)(=O)N2CCN(c3ccc(-c4ccc(OC(F)(F)F)cc4)cc3)CC2)CCOCC1 [Example 327] | 9.30
O=C(NO)C1(S(=O)(=O)N2CCN(c3ccc(-c4cccc(OC(F)(F)F)c4)cn3)CC2)CCOCC1 [Example 319] | 8.34
COc1ccccc1-c1ccc(N2CCN(S(=O)(=O)C3(C(=O)NO)CCOCC3)CC2)nc1 [Example 318] | 7.21
CCc1ccc(C2CCN(S(=O)(=O)C3(C(=O)NO)CCN(CCOC)CC3)CC2)s1 [Example 314] | 7.71
O=C(NO)C1(S(=O)(=O)N2CCN(c3cnn(CCCC(F)(F)F)c(=O)c3)CC2)CCOCC1 [Example 321] | < 5.00
O=C(NO)C1(S(=O)(=O)N2CCN(c3ccc(CCCC(F)(F)F)cc3)CC2)CCOCC1 [Example 320] | 9.30
O=C(NO)C1(S(=O)(=O)N2CCC(c3ccc(OCC(F)(F)C(F)F)cc3)CC2)CCN(C2CC2)CC1 [Example 350] | 9.28
O=C(NO)C1(S(=O)(=O)N2CCC(c3ccc(OC(F)(F)C(F)F)cc3)CC2)CCOCC1 [Example 337] | 9.15
CCN1CCC(C(=O)NO)(S(=O)(=O)N2CCN(c3ccc(-c4ccccc4)c(F)c3)CC2)CC1 [Example 341] | 8.59
CCCCOc1cccc(N2CCN(S(=O)(=O)C3(C(=O)NO)CCOCC3)CC2)c1 [Example 354] | 6.78

Other lines, results leading:

pKi | SMILES
6.29 | O=C(NO)C1(S(=O)(=O)N2CCC(COCC(F)(F)C(F)F)CC2)CCOCC1 [Example 375]
9.78 | CCCCc1ccc(-c2cnc(N3CCN(S(=O)(=O)C4(C(=O)NO)CCOCC4)CC3)s2)cc1 [Example 379]
8.66 | CCCCc1ccc(C2CCN(S(=O)(=O)C3(C(=O)NO)CCN(CC)CC3)CC2)nc1 [Example 396]
7.51 | O=C(NO)C1(S(=O)(=O)N2CCN(c3ncc(-c4ccccn4)s3)CC2)CCOCC1 [Example 387]
9.31 and 9.18 | O=C(NO)C1(S(=O)(=O)N2CCN(c3ccc(-c4ccccc4)cn3)CC2)CCOCC1 [Example 372]
9.74 | CC(C)c1ccc(-c2cnc(N3CCN(S(=O)(=O)C4(C(=O)NO)CCOCC4)CC3)s2)cc1 [Example 366]
8.17 | O=C(NO)C1(S(=O)(=O)N2CCC(c3ccc(-c4cccnc4)cn3)CC2)CCOCC1 [Example 390]
10.12 | O=C(NO)C1(S(=O)(=O)N2CCN(c3ncc(-c4ccc([N+](=O)[O-])cc4)s3)CC2)CCOCC1 [Example 363]
9.36 | O=C(NO)C1(S(=O)(=O)N2CCN(c3ncc(-c4ccc(F)cc4F)s3)CC2)CCOCC1 [Example 359]
8.64 | O=C(NO)C1(S(=O)(=O)N2CCN(c3ccc(CCCC(F)(F)F)cc3F)CC2)CCOCC1 [Example 386]
8.37 | O=C(NO)C1(S(=O)(=O)N2CCC(c3ccc(-c4ccccc4)cn3)CC2)CCOCC1 [Example 392]
10.13 | CCc1ccc(-c2cnc(N3CCN(S(=O)(=O)C4(C(=O)NO)CCOCC4)CC3)s2)cc1 [Example 381]
9.97 | O=C(NO)C1(S(=O)(=O)N2CCN(c3ncc(-c4ccc(OC(F)(F)F)cc4)s3)CC2)CCOCC1 [Example 364]
7.51 | O=C(NO)C1(S(=O)(=O)N2CCC(COCC(F)(F)C(F)(F)F)CC2)CCOCC1 [Example 376]
9.08 | O=C(NO)C1(S(=O)(=O)N2CCC(c3ccc(CCC(F)(F)F)cn3)CC2)CCOCC1 [Example 367]
8.24 | CCC=C1CCN(S(=O)(=O)C2(C(=O)NO)CCOCC2)CC1 [Example 374]
9.33 | O=C(NO)C1(S(=O)(=O)N2CCN(c3ccc(CCCC(F)(F)F)c(F)c3)CC2)CCOCC1 [Example 389]
8.76 | O=C(NO)C1(S(=O)(=O)N2CCC(c3ccc(-c4cccs4)cn3)CC2)CCOCC1 [Example 394]
9.37 | O=C(NO)C1(S(=O)(=O)N2CCN(c3ncc(-c4ccc(-c5ccccc5)cc4)s3)CC2)CCOCC1 [Example 360]
9.57 | N#Cc1cccc(-c2cnc(N3CCN(S(=O)(=O)C4(C(=O)NO)CCOCC4)CC3)s2)c1 [Example 384]
8.38 | Cc1cccc(-c2cnc(N3CCN(S(=O)(=O)C4(C(=O)NO)CCOCC4)CC3)s2)c1 [Example 370]
8.97 | O=C(NO)C1(S(=O)(=O)N2CCN(c3ncc(/C=C/c4ccccc4)s3)CC2)CCOCC1 [Example 361]
